The record followed here is patent US9630929B2, “Benzenesulfonamide compounds and their use as therapeutic agents” (XENON PHARMACEUTICALS INC., priority 2011, dated 2017).

The target of assay [1] is T1, NaV1.7 (Homo sapiens (Human), UniProt Q15858). Put plainly: Patch voltage clamp electrophysiology (EP), affinity for the inactivated state of Nav1.7. The class given is cell-based. To be noted: HEK-293 cells expressing human Nav1.7 with β1 subunit. The method, then: The following patch voltage clamp electrophysiology studies were performed on representative compounds of the invention using human embryonic kidney cells (HEK), permanently transfected with an expression vector containing the full-length cDNA coding for the desired human sodium channel α-subunit, grown in culture media containing 10% FBS, 1% PSG, and 0.5 mg/mL G418 at 37° C. with 5% CO2. […] Nav1.7 and Nav1.5 cDNAs (NM_002977 and AC137587; SCN5A, respectively) were stably expressed in HEK-293 cells. The β1 subunit was coexpressed only in the Nav1.7 cell line.
Sodium currents were measured using the patch clamp technique in the whole-cell configuration using either a PatchXpress automated voltage clamp or manually using an Axopatch 200B (Axon Instruments) or Model 2400 (A-M systems) amplifier. […] The pipette was filled with a solution comprised of: 5 mM NaCl, 10 mM CsCl, 120 mM CsF, 0.1 mM CaCl2, 2 mM MgCl2, 10 mM HEPES, 10 mM EGTA; and adjusted to pH 7.2 with CsOH. The external solution had the following composition: 140 mM NaCl, 5 mM KCl, 2 mM CaCl2, 1 mM MgCl2, 10 mM HEPES; and adjusted to pH 7.4 with NaOH. In some studies, the external sodium was reduced by equimolar replacement with choline. Osmolarity in the CsF internal and NaCl external solutions was adjusted to 300 mOsm/kg and 310 mOsm/kg with glucose, respectively. All recordings were performed at ambient temperature in a bath chamber with a volume of 150 μL. Control sodium currents were measured in 0.5% DMSO. Controls and representative compounds of the invention were applied to the recording chamber through a 4-pinch or 8-pinch valve bath perfusion system manufactured by ALA Scientific Instruments.
Series resistance compensation was applied (60-80%). […] All statistics in this study are given as mean±SD.
The membrane potential was maintained at a voltage where inactivation of the channel is complete (which was −60 mV for both Nav1.7 and Nav1.5). The voltage is then stepped back to a very negative (Vhold=−150 mV) voltage for 20 ms and then a test pulse is applied to quantify the compound block. […] The percent decrease in sodium current following wash-on of compound was taken as the percent block of sodium channels.
The Example numbers provided in Table 1 and Table 2 correspond to the Examples herein: […]

Assay [2] has as its target T1, NaV1.7. In words: NaV flux assay, inhibition of NaV1.7. It counts as cell-based. The following applies: NaV flux data, included when EP data is not available.

T1 sequence (Q15858 other isoform, or with tags, fused parts or gaps): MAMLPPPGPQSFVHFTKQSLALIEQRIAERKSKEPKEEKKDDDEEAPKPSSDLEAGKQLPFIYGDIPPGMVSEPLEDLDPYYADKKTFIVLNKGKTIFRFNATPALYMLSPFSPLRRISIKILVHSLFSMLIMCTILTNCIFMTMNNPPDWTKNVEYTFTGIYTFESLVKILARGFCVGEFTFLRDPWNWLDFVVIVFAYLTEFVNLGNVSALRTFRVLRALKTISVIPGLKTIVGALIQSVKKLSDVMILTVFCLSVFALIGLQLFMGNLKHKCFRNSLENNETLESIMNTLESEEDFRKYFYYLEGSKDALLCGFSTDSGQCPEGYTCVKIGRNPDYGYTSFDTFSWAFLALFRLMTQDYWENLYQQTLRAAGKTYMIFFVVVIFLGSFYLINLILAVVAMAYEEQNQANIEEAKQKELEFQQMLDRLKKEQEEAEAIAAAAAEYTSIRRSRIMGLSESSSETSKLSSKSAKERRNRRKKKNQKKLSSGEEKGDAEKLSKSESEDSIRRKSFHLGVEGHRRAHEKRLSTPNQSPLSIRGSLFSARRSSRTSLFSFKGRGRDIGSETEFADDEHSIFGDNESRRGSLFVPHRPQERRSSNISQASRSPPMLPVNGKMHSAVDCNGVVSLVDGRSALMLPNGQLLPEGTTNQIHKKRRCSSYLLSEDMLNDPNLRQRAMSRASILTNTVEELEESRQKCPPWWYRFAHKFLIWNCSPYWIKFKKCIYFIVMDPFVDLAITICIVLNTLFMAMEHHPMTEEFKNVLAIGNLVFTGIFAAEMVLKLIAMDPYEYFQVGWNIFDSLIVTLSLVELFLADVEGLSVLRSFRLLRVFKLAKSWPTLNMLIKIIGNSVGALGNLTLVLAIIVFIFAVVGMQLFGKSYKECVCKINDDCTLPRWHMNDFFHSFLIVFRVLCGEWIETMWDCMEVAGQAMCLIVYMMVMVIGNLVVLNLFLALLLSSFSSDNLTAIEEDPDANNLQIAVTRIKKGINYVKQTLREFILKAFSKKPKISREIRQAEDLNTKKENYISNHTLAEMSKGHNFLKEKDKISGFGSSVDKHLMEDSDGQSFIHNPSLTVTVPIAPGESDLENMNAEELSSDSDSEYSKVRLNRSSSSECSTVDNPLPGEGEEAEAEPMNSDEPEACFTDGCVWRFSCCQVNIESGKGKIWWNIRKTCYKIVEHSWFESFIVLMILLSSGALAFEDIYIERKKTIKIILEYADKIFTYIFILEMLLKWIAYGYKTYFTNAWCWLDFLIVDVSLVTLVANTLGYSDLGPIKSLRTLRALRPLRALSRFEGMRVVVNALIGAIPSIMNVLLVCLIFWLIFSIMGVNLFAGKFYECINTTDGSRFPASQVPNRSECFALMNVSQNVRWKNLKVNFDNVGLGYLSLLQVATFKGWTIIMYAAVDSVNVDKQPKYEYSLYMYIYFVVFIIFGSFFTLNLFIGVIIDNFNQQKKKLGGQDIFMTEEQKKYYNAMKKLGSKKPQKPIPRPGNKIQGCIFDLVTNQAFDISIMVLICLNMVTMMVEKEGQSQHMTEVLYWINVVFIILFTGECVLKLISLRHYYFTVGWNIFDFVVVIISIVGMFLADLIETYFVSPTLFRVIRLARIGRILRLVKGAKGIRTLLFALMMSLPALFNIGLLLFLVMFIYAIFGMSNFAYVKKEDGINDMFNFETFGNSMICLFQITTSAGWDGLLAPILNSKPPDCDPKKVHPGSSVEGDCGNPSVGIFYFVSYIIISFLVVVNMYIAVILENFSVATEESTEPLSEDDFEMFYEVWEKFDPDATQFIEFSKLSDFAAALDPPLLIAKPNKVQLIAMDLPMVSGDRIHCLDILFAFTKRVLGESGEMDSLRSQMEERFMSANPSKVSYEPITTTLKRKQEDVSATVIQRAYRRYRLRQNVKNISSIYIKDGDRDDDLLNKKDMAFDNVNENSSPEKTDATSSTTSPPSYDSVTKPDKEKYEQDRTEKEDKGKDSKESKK
T1 sequence (Q07699 19-218 partner): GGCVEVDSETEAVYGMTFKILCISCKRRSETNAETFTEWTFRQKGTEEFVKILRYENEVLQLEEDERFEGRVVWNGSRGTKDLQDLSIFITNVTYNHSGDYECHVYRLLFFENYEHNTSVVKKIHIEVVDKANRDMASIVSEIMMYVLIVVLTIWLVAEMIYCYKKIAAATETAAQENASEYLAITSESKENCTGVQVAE

`O=S(=O)(Nc1ccc(F)cn1)c1cc(F)c(OC[C@@H]2CNCC[C@H]2c2ccc(Cl)cc2)cc1F` (relative stereo) [Example 63, 4-((trans-4-(4-chlorophenyl)piperidin-3-yl)methoxy)-2,5-difluoro-N-(5-fluoropyridin-2-yl)benzenesulfonamide]: the IC50 at NaV1.7 [1] (read-out: NaV1.7 (IC50 class)) was less than 100 nM; at NaV1.7 [1] (read-out: NaV1.7 IC50), 70.5 nM.
As to `O=S(=O)(Nc1ncns1)c1cc(F)c(OC[C@@H]2CNCC[C@H]2c2ccc(Cl)cc2)c(F)c1` (relative stereo) [Example 81, 4-((trans-4-(4-chlorophenyl)piperidin-3-yl)methoxy)-3,5-difluoro-N-(1,2,4-thiadiazol-5-yl)benzenesulfonamide], the IC50 at NaV1.7 [2] amounted to 2320 nM.
The same measure, in the same setting: under `Cn1cns/c1=N/S(=O)(=O)c1cc(F)c(OC[C@@H]2CNCC[C@H]2c2ccc(Cl)cc2)cc1F` (relative stereo) [Example 78, (E)-4-((trans-4-(4-chlorophenyl)piperidin-3-yl)methoxy)-2,5-difluoro-N-(4-methyl-1,2,4-thiadiazol-5(4H)-ylidene)benzenesulfonamide] stands 4080 nM; under `O=C(NS(=O)(=O)c1cc(F)c(OC[C@@H]2CNCC[C@H]2c2ccc(Cl)cc2)cc1F)c1ccccn1` (relative stereo) [Example 99, N-((4-((trans-4-(4-chlorophenyl)piperidin-3-yl)methoxy)-2,5-difluorophenyl)sulfonyl)picolinamide], greater than 10000 nM.
Turning to `O=S(=O)(Nc1ncns1)c1cc(F)c(OC[C@@H]2CN(CC(F)F)CC[C@H]2c2ccc(Cl)cc2)cc1F` (relative stereo) [Example 83, 4-((trans-4-(4-chlorophenyl)-1-(2,2-difluoroethyl)piperidin-3-yl)methoxy)-2,5-difluoro-N-(1,2,4-thiadiazol-5-yl)benzenesulfonamide], the half-inhibitory concentration (IC50) on NaV1.7 [1] (read-out: NaV1.7 (IC50 class)) was less than 100 nM; on NaV1.7 [1] (read-out: NaV1.7 IC50), 38.1 nM.
With `O=S(=O)(Nc1ncns1)c1cc(F)c(OC[C@@H]2CCNC[C@H]2c2ccc(F)cc2)cc1F` (relative stereo) [Example 82, 2,5-difluoro-4-((trans-3-(4-fluorophenyl)piperidin-4-yl)methoxy)-N-(1,2,4-thiadiazol-5-yl)benzenesulfonamide], the 50% inhibitory concentration (IC50) at NaV1.7 [1] (read-out: NaV1.7 (IC50 class)) was less than 100 nM; at NaV1.7 [1] (read-out: NaV1.7 IC50), 31.7 nM.
For the compound `O=S(=O)(Nc1ncccn1)c1cc(F)c(OC[C@@H]2CNCC[C@H]2c2ccc(Cl)cc2)cc1F` (relative stereo) [Example 49, 4-((trans-4-(4-chlorophenyl)piperidin-3-yl)methoxy)-2,5-difluoro-N-(pyrimidin-2-yl)benzenesulfonamide], the values for the IC50 on NaV1.7 [1] (read-out: NaV1.7 (IC50 class)) and on NaV1.7 [1] (read-out: NaV1.7 IC50) were less than 100 nM and 53.2 nM, respectively.
With `Cc1nsc(NS(=O)(=O)c2cc(F)c(OC[C@@H]3CNCC[C@H]3c3ccc(Cl)cc3)cc2F)n1` (relative stereo) [Example 52, 4-((trans-4-(4-chlorophenyl)piperidin-3-yl)methoxy)-2,5-difluoro-N-(3-methyl-1,2,4-thiadiazol-5-yl)benzenesulfonamide], the results for the IC50 on NaV1.7 [1] (read-out: NaV1.7 (IC50 class)) and at NaV1.7 [1] (read-out: NaV1.7 IC50) were 100 to 1000 nM and 194 nM, respectively.
`O=S(=O)(Nc1ncns1)c1cc(F)c(OC[C@H]2CNCC[C@@H]2c2ccc(Cl)cc2)cc1F` [Example 77, 4-(((3R,4S)-4-(4-chlorophenyl)piperidin-3-yl)methoxy)-2,5-difluoro-N-(1,2,4-thiadiazol-5-yl)benzenesulfonamide]: the IC50 on NaV1.7 [1] (read-out: NaV1.7 (IC50 class)) was less than 100 nM; at NaV1.7 [1] (read-out: NaV1.7 IC50) it was 1.1 nM.
For `CC(C)(C)OC(=O)N1CC[C@@H](c2ccc(Cl)cc2)[C@H](COc2cc(F)c(S(=O)(=O)Nc3ncns3)cc2F)C1` (relative stereo) [Example 69, trans-tert-butyl 3-((4-(N-(1,2,4-thiadiazol-5-yl)sulfamoyl)-2,5-difluorophenoxy)methyl)-4-(4-chlorophenyl)piperidine-1-carboxylate] the same measures were 100 to 1000 nM and 164 nM.
On the same counts, the results for `Cc1cnc(NS(=O)(=O)c2cc(F)c(OC[C@@H]3CNCC[C@H]3c3ccc(Cl)cc3)cc2F)s1` (relative stereo) [Example 57, 4-((trans-4-(4-chlorophenyl)piperidin-3-yl)methoxy)-2,5-difluoro-N-(5-methylthiazol-2-yl)benzenesulfonamide] are 100 to 1000 nM and 116 nM.
As for `O=S(=O)(Nc1ncns1)c1cc(F)c(OC[C@H]2CNCC[C@H]2c2ccc(Cl)cc2)cc1F` (relative stereo) [Example 66, 4-((cis-4-(4-chlorophenyl)piperidin-3-yl)methoxy)-2,5-difluoro-N-(1,2,4-thiadiazol-5-yl)benzenesulfonamide], the IC50 on NaV1.7 [1] (read-out: NaV1.7 IC50) was 237 nM.
As to `O=S(=O)(Nc1ncns1)c1cc(F)c(OC[C@@H]2CN(CCF)CC[C@H]2c2ccc(Cl)cc2)cc1F` (relative stereo) [Example 80, 4-((trans-4-(4-chlorophenyl)-1-(2-fluoroethyl)piperidin-3-yl)methoxy)-2,5-difluoro-N-(1,2,4-thiadiazol-5-yl)benzenesulfonamide], the results for the IC50 at NaV1.7 [1] (read-out: NaV1.7 (IC50 class)) and on NaV1.7 [1] (read-out: NaV1.7 IC50) were less than 100 nM and 93.7 nM, respectively.
On to `O=S(=O)(Nc1ncns1)c1cc(F)c(OC[C@@H]2CNCC[C@H]2c2ccc(Cl)cc2)cc1F` [Example 84, 4-(((3S,4R)-4-(4-chlorophenyl)piperidin-3-yl)methoxy)-2,5-difluoro-N-(1,2,4-thiadiazol-5-yl)benzenesulfonamide], for which, on NaV1.7 [1] (read-out: NaV1.7 (IC50 class)), the IC50 was less than 100 nM.
Turning to `O=S(=O)(Nc1ncns1)c1cc(F)c(OC[C@@H]2CNCC[C@H]2c2ccc(F)cc2)cc1F` [Example 46, 2,5-difluoro-4-(((3S,4R)-4-(4-fluorophenyl)piperidin-3-yl)methoxy)-N-(1,2,4-thiadiazol-5-yl)benzenesulfonamide], the IC50 is 100 to 1000 nM at NaV1.7 [1] (read-out: NaV1.7 (IC50 class)) and 928 nM on NaV1.7 [1] (read-out: NaV1.7 IC50).
`O=S(=O)(Nc1ncns1)c1cc(F)c(OC[C@@H]2CCCC[C@H]2c2ccc(F)cc2)cc1F` (relative stereo) [Example 68, 2,5-difluoro-4-((trans-2-(4-fluorophenyl)cyclohexyl)methoxy)-N-(1,2,4-thiadiazol-5-yl)benzenesulfonamide]: the results for the concentration for half-maximal inhibition (IC50) on NaV1.7 [1] (read-out: NaV1.7 (IC50 class)) and at NaV1.7 [1] (read-out: NaV1.7 IC50) were 100 to 1000 nM and 280 nM, respectively.
For `O=S(=O)(Nc1ncns1)c1cc(F)c(OC[C@@H]2CNCC[C@H]2c2ccc(Cl)cc2)cc1F` (relative stereo) [Example 44, 4-((trans-4-(4-chlorophenyl)piperidin-3-yl)methoxy)-2,5-difluoro-N-(1,2,4-thiadiazol-5-yl)benzenesulfonamide], the IC50 on NaV1.7 [1] (read-out: NaV1.7 (IC50 class)) is less than 100 nM.
With `O=S(=O)(Nc1cccnn1)c1cc(F)c(OC[C@@H]2CNCC[C@H]2c2ccc(Cl)cc2)cc1F` (relative stereo) [Example 65, 4-((trans-4-(4-chlorophenyl)piperidin-3-yl)methoxy)-2,5-difluoro-N-(pyridazin-3-yl)benzenesulfonamide], the IC50 was 100 to 1000 nM on NaV1.7 [1] (read-out: NaV1.7 (IC50 class)) and 171 nM on NaV1.7 [1] (read-out: NaV1.7 IC50).
On the same counts, the results for `Cc1cc(NS(=O)(=O)c2cc(F)c(OC[C@@H]3CNCC[C@H]3c3ccc(Cl)cc3)cc2F)no1` (relative stereo) [Example 56, 4-((trans-4-(4-chlorophenyl)piperidin-3-yl)methoxy)-2,5-difluoro-N-(5-methylisoxazol-3-yl)benzenesulfonamide] are 1000 to 10000 nM and 1890 nM.
On the same counts, the results for `O=S(=O)(Nc1ncccn1)c1cc(F)c(OC[C@@H]2CNCC[C@H]2c2ccc(F)cc2)cc1F` (relative stereo) [Example 50, 2,5-difluoro-4-((trans-4-(4-fluorophenyl)piperidin-3-yl)methoxy)-N-(pyrimidin-2-yl)benzenesulfonamide] are 100 to 1000 nM and 323 nM.
On the same counts, the results for `O=S(=O)(Nc1ncns1)c1cc(F)c(OC[C@@H]2CNC[C@H]2c2ccc(Cl)cc2)cc1F` (relative stereo) [Example 54, 4-((trans-4-(4-chlorophenyl)pyrrolidin-3-yl)methoxy)-2,5-difluoro-N-(1,2,4-thiadiazol-5-yl)benzenesulfonamide] are less than 100 nM and 49.9 nM.
For the compound `O=S(=O)(Nc1nncs1)c1cc(F)c(OC[C@@H]2CNCC[C@H]2c2ccc(Cl)cc2)cc1F` (relative stereo) [Example 51, 4-((trans-4-(4-chlorophenyl)piperidin-3-yl)methoxy)-2,5-difluoro-N-(1,3,4-thiadiazol-2-yl)benzenesulfonamide], the IC50 is less than 100 nM at NaV1.7 [1] (read-out: NaV1.7 (IC50 class)) and 84.4 nM at NaV1.7 [1] (read-out: NaV1.7 IC50).

What is called IC50 is the concentration needed to halve the response being measured.
